The test system of one test is IPC298 cells (NRAS-Q61L). Kind of test: Proliferation inhibition (CellTiter-Glo), IPC298. To be noted: IPC298, 3 days, read-out: IPC298 Prolif. EC50. The test is classed as cell-based, human. The method, then: All cancer cell lines (A375, A101D, A2058, RKO, HT29 SK-MEL 30, IPC298, HepG2, HCT-116, Lovo, SWV620, SW480, NCI-H358, NCI-H2122, Calu-6, NCIH2087, NCIH1755, NCIH1666 and Mewo) were obtained from ATCC and cultured in RPMI-1640 medium (Gibco) supplemented with 5% heat inactivated fetal bovine serum (FBS, Wisent) at 37° C. under 5% CO2. Cells were maintained in T175 flasks (Greiner). They were passaged by removing the culture medium, washing once in 10 mL of room temperature Phosphate Buffered Saline (PBS; Wisent) and incubating at 37° C. with 2 mL of 0.05% Trypsin (Thermo-Fisher). Trypsin was then inactivated by adding complete growth medium and the cells were then replated in a T175 culture dish at the appropriate dilution. All cell lines were routinely tested for mycoplasma contamination. Tissue type and mutational status of each cell line can be found in Table B.
CellTiter-Glo® viability analysis was conducted on cells plated in 100 μL of complete RPMI-1640 growth medium in 96-well flat-bottomed white opaque plates (Greiner or Croning) at a density indicated in Table E (for each CCL, number of cells plated per well of a 96-well plate to perform the CellTiter-Glo® cell viability assay). The cell density in cells/cm^2 would correspond to cell number divided by the area of one well of a 96-well plate (0.32 cm^2). […]
(§1) After 3 days of incubation, the growth media were removed by aspiration and 60 μL of diluted CellTiter-Glo® reagent (10 μL CellTiter-Glo® reagent+50 μL of PBS) was added to each well. […] Luminescence signals were then acquired on a Synergy Neo2 plate reader (Biotek).
(§2) The effect of each compound dilution on the proliferation of cancer cell lines was expressed in % inhibition and calculated as follows. […]
(§3) The ability of each compound to inhibit proliferation was expressed as a EC50 value obtained by plotting the effect values for each data point of a dilution series and fitting the obtained curves using a log(agonist) versus response-variable slope (four parameters) function using GraphPadPrism (V7.0) or Dotmatics Screening Ultra platform.
(In general: In ATP-based viability assays light output follows the ATP content of the culture.)

The next test concerns the target ARAF (Homo sapiens (Human), UniProt P10398). The experiment in a line: ARAF kinase activity assay (AlphaLISA p-MEK 1/2 detection). The test is classed as biochemical. The method, then: Compound preparation: solid samples of each substances in 1 dram vials were suspended in DMSO (Fisher Scientific) at a stock concentration of 20 mM. Stocks were kept at −20° C. and protected from light. If solubility of the compound at 20 mM appeared to be an issue, the initial concentration of the DMSO stock was changed to 10 mM or 5 mM.
In vitro enzymatic reactions were used for evaluating compounds intrinsic activity against BRAF, CRAF and ARAF. For BRAF and CRAF, 0.375 nM of purified GST-tagged kinases (cat #B4062-10 UG and cat #R1656-10 UG respectively from Millipore Sigma) were incubated with 75 nM of kinase-dead MEK1 substrate (cat #40075; BPS Bioscience) in the presence of 10 μM of Ultrapure ATP (cat #V9102; Promega; part V915A) with and without the test compound in a buffer containing 50 mM HEPES pH 7.5, 10 mM MgCl2, 1 mM EDTA, 0.01% Brij-35 and 2 mM DTT. Separate reactions were performed with the MEK1 substrate and ATP as a blank control. ARAF, kinase reactions were rigorously the same with the exception that kinase concentration was raised to 3.75 nM (cat #1768-0000-1; Reaction Biology).
For compound treatment, 5 μL/well of test substance solution are placed in a 384-well proxyplate (Perkin Elmer) and mixed with 2× concentrated kinase reactions. The dilution series is selected so that nine concentrations cover a range from 100 nM to 0.01 nM. […] The final concentration of DMSO in the assay is set at 0.05%.
ARAF kinase reactions were carried out for a total of 2 hours at 30° C. and then stopped by addition of EDTA at a final concentration of 40 mM. Reactions were then detected using the AlphaLISA® SureFire® Ultra™ p-MEK 1/2 (Ser218/222) (PerkinElmer) kit. Reactions were performed with 5 μL of kinase reaction according to the manufacturer's specifications in 384-well proxyplates (Perkin Elmer) followed by overnight incubation of the AlphaLISA® reactions at room temperature in a humidified chamber. After completion of the detection reactions, the signals were recorded on a Synergy Neo2 plate reader (Biotek) equipped with AlphaLISA® filters. The effect of each compound dilution on the pMEK signal generated by ARAF reactions was expressed in % inhibition and calculated as follows. An internal 100% inhibition control (average of luminescence in kinase reactions comprising kinase dead MEK1 substrate alone) was included in each plate to measure of pMEK background and was subtracted from each data point. The average of DMSO (vehicle) controls (set as 0% inhibition) was also established and used to calculate % inhibition: % inhibition=100*(1−((pMEK signalcompound)/(pMEK signalDMSO)))
IC50 values were obtained by plotting the kinase inhibition values and fitting the dose-activity curves using a log(agonist) versus response-variable slope (four parameters) function using either GraphPadPrism (V7.0) or Dotmatics Screening Ultra platform. Standards included in the ARAF kinase assay were Belvarafenib (MedChem Express cat #HY-109080; CAS #1446113-23-0), LXH254 (MedChem Express cat #HY-112089; CAS #1800398-38-2) and BGB283 (cat #HY-18957; CAS #1446090-79-4).

In the next test the test system is A101D cells (BRAF V600E). The experiment in a line: Proliferation inhibition (CellTiter-Glo), A101D. It is filed as cell-based, human. To be noted: 3 days, read-out: A101D Prolif. EC50. The method, then:
All cancer cell lines (A375, A101D, A2058, RKO, HT29 SK-MEL 30, IPC298, HepG2, HCT-116, Lovo, SWV620, SW480, NCI-H358, NCI-H2122, Calu-6, NCIH2087, NCIH1755, NCIH1666 and Mewo) were obtained from ATCC and cultured in RPMI-1640 medium (Gibco) supplemented with 5% heat inactivated fetal bovine serum (FBS, Wisent) at 37° C. under 5% CO2. Cells were maintained in T175 flasks (Greiner). They were passaged by removing the culture medium, washing once in 10 mL of room temperature Phosphate Buffered Saline (PBS; Wisent) and incubating at 37° C. with 2 mL of 0.05% Trypsin (Thermo-Fisher). […]
as §1, §2, §3

What is called EC50 is the concentration that produces a half-maximal response. As a reminder, the IC50 is the concentration that inhibits the measured activity by half.

The structures appear in SMILES notation. Where two headings read alike, the source gives them in different places. Some results are limits rather than exact numbers.

Chain of ARAF (P10398 whole entry): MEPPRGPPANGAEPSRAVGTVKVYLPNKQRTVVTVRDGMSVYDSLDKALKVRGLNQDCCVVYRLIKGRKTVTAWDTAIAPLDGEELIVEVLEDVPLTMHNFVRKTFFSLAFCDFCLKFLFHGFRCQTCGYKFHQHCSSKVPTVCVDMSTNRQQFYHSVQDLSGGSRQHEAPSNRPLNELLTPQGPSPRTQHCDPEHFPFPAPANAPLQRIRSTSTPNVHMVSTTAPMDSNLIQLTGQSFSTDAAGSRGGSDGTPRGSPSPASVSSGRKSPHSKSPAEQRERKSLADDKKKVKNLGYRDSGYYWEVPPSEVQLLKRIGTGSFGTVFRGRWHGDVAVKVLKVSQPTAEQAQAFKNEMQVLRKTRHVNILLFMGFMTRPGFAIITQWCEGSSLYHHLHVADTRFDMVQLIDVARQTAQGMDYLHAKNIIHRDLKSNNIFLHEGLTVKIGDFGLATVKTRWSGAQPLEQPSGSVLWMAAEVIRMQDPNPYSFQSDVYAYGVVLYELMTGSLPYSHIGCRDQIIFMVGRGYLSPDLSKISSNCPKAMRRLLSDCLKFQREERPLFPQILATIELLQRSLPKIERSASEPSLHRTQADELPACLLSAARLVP

Turning to `CC1(O)CCN(c2cccc3c2ncn3-c2ccc3ncnc(Nc4c(F)ccc(NS(=O)(=O)c5cccc(Cl)c5Cl)c4F)c3n2)CC1` [Example 524], the EC50 in the test on IPC298 cells (NRAS-Q61L) and in the test on A101D cells (BRAF V600E) was less than 30 nM each time. Besides, on ARAF, the IC50 is 1 to 10 nM.
On to `Cc1ccc2c(Nc3cccc(Cl)c3F)nccc2c1NC(=O)c1csc2c(N)ncnc12` [Belvarafenib, reference compound], for which, in the test on IPC298 cells (NRAS-Q61L) (Homo sapiens, IPC-298, 72 h), the EC50 is less than 30 nM. Further, on ARAF, the IC50 is more than 10 nM.
As for `Nc1cccc2c1ncn2-c1ccc2ncnc(Nc3c(F)ccc(NS(=O)(=O)c4cccc(Cl)c4Cl)c3F)c2n1` [Example 99], the concentration giving a half-maximal response (EC50) in the test with IPC298 cells (NRAS-Q61L) and with A101D cells (BRAF V600E) was less than 30 nM in each case. On ARAF, the IC50 was less than 1 nM.

For the origin of these results see patent US12139488B2, “Pyrido[3,2-d]pyrimidine compounds uses thereof for treating a proliferative disease” (Universite de Montreal, priority 2021, dated 2024).
